Columns and labels:
[1] = target: T1, PXR (nuclear receptor subfamily 1 group I member 2) (Homo sapiens, UniProt O75469); experiment: PXR Indigo Bioscience nuclear receptor screen
T1 sequence (O75469 whole entry): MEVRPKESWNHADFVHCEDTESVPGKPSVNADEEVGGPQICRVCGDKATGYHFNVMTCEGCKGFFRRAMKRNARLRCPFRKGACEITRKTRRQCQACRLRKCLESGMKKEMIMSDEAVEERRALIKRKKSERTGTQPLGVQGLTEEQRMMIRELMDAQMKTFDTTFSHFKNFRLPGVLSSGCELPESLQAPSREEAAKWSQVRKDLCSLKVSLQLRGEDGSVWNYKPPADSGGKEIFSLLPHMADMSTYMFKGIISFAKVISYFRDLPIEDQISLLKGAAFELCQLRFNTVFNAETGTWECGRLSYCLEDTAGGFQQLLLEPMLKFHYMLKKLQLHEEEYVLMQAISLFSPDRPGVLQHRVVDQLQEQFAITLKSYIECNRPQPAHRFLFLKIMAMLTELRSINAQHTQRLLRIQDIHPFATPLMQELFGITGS

[2] = target: T2, Peroxisome proliferator-activated receptor delta (Homo sapiens) (UniProt Q03181); experiment: PPARdelta Indigo Bioscience nuclear receptor screen
T2 sequence (whole entry): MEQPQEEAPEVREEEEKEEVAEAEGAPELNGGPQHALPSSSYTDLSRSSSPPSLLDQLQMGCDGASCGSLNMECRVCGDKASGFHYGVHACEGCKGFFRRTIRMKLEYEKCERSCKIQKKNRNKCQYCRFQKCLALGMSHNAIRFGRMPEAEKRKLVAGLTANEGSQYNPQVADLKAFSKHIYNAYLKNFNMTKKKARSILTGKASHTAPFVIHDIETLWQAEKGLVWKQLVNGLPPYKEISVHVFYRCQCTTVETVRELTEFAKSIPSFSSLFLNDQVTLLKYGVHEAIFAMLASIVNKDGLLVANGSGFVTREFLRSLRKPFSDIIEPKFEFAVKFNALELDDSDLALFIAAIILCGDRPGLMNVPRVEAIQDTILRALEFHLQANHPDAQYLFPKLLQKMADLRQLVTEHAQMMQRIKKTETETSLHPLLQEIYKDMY

[3] = target: Alpha-2B adrenergic receptor (Homo sapiens, UniProt P18089); experiment: GPCRScan assay: inhibition of Alpha2B; design: radioligand conc. used [nm] 1.5 – 2.0, parental cells HEKT
[4] = target: Cyclin-dependent kinase 5/CDK5 activator 1 (Homo sapiens) (UniProt Q00535+Q15078); experiment: CDK5/p35 Invitrogen kinase panel; type: protein-complex assay; details: Compound concentration 10.0 uM
[5] = target: 5-hydroxytryptamine receptor 2C (Homo sapiens) (UniProt P28335); details: Compound concentration 10.0 uM
[6] = target: Thyroid hormone receptor alpha (Homo sapiens) (UniProt P10827); experiment: TRalpha Indigo Bioscience nuclear receptor screen; details: Compound concentration 0.3 uM
[7] = target: Tyrosine-protein kinase JAK3 (Homo sapiens) (UniProt P52333); experiment: JAK3 Invitrogen kinase panel; details: Compound concentration 10.0 uM
[8] = target: T3, Estrogen receptor (Homo sapiens) (UniProt P03372); experiment: ERalpha Indigo Bioscience nuclear receptor screen
T3 sequence (whole entry): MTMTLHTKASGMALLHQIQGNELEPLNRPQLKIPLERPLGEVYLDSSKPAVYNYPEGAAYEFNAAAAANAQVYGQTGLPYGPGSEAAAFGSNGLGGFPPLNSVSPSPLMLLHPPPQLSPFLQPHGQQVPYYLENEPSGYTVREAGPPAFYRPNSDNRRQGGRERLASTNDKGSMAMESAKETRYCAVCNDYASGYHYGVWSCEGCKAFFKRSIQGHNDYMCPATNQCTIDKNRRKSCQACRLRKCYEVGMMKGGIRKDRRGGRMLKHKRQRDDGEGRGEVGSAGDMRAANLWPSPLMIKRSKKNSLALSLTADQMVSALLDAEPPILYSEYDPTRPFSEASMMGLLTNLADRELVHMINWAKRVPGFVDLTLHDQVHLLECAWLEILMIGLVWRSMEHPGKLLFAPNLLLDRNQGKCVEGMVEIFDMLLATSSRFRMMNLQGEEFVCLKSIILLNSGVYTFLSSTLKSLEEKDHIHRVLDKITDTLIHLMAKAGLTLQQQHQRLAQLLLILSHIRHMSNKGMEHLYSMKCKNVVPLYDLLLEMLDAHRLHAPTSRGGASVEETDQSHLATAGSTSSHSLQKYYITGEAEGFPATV

Glucocorticoid receptor = Glucocorticoid receptor (Homo sapiens, UniProt P04150); experiment: GR In-house nuclear receptor screen
[9] = target: Serine/threonine-protein kinase PLK1 (Homo sapiens) (UniProt P53350); experiment: Plk1 Invitrogen kinase panel; details: Compound concentration 10.0 uM
[10] = target: Melanocortin receptor 4 (Homo sapiens) (UniProt P32245); experiment: MC4 (h) CEREP screen; details: Compound concentration 10.0 uM
[11] = target: Epidermal growth factor receptor (Homo sapiens) (UniProt P00533); experiment: EGFR Invitrogen kinase panel; details: Compound concentration 10.0 uM
[12] = target: Adenosine receptor A2a (Homo sapiens) (UniProt P29274); experiment: A2a (h) CEREP screen
[13] = target: Serine/threonine-protein kinase Chk2 (Homo sapiens) (UniProt O96017); experiment: CHK2 Invitrogen kinase panel; details: Compound concentration 10.0 uM
[14] = target: Oxysterols receptor LXR-alpha (Homo sapiens, UniProt Q13133); experiment: (§1) LXRalpha In-house nuclear receptor screen
[15] = target: Oxysterols receptor LXR-alpha (Homo sapiens) (UniProt Q13133); experiment: as §1; details: Compound concentration 3.0 uM
Sequence of Oxysterols receptor LXR-alpha (Homo sapiens) (Q13133 whole entry): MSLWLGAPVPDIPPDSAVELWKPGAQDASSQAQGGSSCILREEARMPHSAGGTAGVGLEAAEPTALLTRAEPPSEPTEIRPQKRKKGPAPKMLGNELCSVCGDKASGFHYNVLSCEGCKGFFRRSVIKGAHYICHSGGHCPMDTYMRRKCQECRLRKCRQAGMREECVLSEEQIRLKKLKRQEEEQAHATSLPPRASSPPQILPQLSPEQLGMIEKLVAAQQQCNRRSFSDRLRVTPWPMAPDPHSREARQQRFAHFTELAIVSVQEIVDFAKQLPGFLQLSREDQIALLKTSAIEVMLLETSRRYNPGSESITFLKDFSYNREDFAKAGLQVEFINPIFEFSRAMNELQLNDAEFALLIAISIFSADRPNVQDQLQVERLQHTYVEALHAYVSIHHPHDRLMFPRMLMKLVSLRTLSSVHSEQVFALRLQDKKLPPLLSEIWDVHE

Sequence of Adenosine receptor A2a (Homo sapiens) (P29274 whole entry): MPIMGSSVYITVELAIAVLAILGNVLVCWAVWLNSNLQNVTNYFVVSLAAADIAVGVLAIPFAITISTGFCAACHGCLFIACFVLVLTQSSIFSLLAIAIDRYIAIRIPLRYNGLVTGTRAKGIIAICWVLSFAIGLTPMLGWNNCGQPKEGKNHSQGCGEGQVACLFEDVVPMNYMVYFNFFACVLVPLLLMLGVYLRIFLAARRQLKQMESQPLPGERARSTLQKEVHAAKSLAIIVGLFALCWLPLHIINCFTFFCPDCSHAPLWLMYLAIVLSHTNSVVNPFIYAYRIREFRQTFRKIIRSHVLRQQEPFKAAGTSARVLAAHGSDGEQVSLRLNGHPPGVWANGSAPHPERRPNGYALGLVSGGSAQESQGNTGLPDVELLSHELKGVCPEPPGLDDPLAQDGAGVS
Sequence of Oxysterols receptor LXR-alpha (Q13133 whole entry): as the sequence (Q13133 whole entry) above
Sequence of Tyrosine-protein kinase JAK3 (Homo sapiens) (P52333 whole entry): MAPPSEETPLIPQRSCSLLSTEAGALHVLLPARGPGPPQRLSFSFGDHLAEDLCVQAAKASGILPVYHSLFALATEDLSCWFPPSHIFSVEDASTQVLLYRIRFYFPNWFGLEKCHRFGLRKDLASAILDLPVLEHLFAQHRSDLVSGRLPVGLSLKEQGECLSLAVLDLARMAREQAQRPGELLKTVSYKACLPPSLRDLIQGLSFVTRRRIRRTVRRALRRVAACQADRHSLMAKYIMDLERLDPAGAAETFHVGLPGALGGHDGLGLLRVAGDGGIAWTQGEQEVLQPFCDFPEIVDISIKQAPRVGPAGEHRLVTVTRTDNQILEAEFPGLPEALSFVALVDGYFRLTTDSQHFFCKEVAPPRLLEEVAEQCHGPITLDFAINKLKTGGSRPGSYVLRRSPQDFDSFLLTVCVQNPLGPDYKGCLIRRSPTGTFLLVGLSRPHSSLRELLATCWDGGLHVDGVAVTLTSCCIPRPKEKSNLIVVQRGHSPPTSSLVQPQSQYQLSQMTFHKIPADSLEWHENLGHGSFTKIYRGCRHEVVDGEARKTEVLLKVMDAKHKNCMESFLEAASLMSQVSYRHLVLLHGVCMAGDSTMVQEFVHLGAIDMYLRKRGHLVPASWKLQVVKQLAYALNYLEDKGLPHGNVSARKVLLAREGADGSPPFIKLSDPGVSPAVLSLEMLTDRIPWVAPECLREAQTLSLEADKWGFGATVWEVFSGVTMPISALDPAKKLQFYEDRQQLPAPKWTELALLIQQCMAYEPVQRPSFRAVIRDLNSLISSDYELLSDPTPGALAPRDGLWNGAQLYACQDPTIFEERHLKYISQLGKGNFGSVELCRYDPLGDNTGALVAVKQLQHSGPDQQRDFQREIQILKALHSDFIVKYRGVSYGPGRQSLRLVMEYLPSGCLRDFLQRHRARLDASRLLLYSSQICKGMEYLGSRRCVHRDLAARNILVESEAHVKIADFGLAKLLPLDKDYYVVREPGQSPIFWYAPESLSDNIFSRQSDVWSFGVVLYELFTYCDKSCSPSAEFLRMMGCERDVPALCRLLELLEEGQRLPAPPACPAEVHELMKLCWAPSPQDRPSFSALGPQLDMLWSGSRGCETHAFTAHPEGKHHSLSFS
Sequence of Glucocorticoid receptor (P04150 whole entry): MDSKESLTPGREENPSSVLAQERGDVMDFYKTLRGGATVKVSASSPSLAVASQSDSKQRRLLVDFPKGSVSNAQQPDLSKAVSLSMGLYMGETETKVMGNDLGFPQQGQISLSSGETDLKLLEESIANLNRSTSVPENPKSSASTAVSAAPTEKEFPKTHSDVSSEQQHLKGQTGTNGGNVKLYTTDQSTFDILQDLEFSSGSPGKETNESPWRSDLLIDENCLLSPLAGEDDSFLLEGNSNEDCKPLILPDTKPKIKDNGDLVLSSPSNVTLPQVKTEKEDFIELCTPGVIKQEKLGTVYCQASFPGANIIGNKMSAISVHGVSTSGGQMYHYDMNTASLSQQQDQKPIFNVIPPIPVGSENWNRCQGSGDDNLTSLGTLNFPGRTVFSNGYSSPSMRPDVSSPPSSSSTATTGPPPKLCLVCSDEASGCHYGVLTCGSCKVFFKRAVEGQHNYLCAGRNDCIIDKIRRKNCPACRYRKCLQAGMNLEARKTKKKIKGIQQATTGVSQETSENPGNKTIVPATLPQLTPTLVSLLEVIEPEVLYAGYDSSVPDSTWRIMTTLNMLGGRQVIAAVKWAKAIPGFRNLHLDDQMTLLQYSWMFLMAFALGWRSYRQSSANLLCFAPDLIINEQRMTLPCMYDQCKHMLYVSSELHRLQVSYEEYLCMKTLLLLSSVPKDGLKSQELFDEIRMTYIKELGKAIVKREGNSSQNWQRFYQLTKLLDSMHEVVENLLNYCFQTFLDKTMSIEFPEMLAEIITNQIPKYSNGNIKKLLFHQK
Sequence of Thyroid hormone receptor alpha (Homo sapiens) (P10827 whole entry): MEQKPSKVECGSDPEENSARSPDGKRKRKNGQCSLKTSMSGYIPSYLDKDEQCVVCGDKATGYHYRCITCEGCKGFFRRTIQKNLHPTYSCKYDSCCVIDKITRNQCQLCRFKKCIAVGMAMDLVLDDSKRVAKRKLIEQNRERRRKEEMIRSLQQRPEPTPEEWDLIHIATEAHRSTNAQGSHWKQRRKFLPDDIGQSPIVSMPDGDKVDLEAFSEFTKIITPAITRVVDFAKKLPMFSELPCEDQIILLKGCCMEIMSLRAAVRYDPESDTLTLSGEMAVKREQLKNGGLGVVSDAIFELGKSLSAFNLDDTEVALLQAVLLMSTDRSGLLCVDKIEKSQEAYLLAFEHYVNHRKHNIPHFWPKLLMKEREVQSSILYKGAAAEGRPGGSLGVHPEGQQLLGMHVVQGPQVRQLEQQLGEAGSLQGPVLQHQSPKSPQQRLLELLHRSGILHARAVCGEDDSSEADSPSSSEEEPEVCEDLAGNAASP
Sequence of Alpha-2B adrenergic receptor (P18089 whole entry): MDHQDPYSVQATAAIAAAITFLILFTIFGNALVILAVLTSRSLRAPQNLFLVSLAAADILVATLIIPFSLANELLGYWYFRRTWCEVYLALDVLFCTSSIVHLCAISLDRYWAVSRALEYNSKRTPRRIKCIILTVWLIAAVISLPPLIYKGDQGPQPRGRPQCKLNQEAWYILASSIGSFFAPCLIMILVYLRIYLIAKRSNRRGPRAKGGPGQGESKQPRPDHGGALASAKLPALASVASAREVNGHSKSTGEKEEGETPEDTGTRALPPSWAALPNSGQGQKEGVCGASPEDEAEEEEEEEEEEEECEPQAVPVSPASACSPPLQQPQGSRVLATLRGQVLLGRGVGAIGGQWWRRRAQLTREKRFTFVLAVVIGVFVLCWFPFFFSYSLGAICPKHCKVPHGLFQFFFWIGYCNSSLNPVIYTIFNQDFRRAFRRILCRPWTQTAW
Sequence of 5-hydroxytryptamine receptor 2C (Homo sapiens) (P28335 whole entry): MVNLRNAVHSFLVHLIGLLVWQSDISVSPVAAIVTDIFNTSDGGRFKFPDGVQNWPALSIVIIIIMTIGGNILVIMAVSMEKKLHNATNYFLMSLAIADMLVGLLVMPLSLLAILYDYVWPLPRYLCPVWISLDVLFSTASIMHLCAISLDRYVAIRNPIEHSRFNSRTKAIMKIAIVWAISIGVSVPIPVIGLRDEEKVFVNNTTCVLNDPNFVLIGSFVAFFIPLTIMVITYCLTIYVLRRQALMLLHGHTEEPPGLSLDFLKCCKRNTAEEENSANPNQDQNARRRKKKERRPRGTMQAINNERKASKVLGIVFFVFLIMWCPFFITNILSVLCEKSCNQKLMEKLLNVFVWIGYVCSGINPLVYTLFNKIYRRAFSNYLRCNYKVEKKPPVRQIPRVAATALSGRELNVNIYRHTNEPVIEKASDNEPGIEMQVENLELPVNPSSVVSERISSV
Sequence of Cyclin-dependent kinase 5/CDK5 activator 1 (Homo sapiens) (Q00535 whole entry): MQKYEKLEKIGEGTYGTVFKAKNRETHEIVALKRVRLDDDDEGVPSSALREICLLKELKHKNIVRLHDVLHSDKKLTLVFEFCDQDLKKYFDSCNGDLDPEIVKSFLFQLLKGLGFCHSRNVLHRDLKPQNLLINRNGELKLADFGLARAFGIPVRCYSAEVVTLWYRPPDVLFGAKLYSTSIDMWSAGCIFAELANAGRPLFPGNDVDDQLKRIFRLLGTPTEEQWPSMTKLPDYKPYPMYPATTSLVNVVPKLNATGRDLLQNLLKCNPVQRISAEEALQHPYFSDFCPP
Sequence of Cyclin-dependent kinase 5/CDK5 activator 1 (Homo sapiens) (Q15078 99-307 partner limits assumed): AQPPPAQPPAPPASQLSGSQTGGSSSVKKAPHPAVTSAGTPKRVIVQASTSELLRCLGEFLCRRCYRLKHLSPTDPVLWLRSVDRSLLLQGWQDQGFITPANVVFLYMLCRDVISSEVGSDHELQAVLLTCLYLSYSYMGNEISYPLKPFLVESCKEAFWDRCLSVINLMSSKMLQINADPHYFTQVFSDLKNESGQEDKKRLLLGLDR

inhibition at 0.3 µM ([1]; compound concentration 0.3 uM): -7.63% (not active)
inhibition at 1 µM ([1]; compound concentration 1 uM): -26.4% (not active)
inhibition at 3 µM ([1]; compound concentration 3 uM): 1.01% (not active)
inhibition ([2]; Compound concentration 0.3 uM): -3.53%
inhibition ([2]; Compound concentration 1.0 uM): -5.27%
inhibition ([2]; Compound concentration 3.0 uM): 0.29%
Ki [3]: 9.22 µM
inhibition [4]: -2%
inhibition [5]: 21.2%
inhibition [6]: -5.63%
inhibition [7]: 2%
inhibition ([8]; Compound concentration 0.3 uM): -1.2%
inhibition ([8]; Compound concentration 1.0 uM): 0.61%
inhibition ([8]; Compound concentration 3.0 uM): -3.01%
IC50 (Glucocorticoid receptor): ~6 µM
inhibition [9]: -1%
inhibition [10]: 14%
inhibition [11]: -4%
inhibition ([12]; Compound concentration 1.0 uM): 18%
inhibition ([12]; Compound concentration 10.0 uM): 21%
inhibition [13]: 6%
IC50 [14]: 6.4 µM
inhibition [15]: 31%
Compound: COc1nc2ccc([C@@](O)(c3ccccc3)C3CCN(C(C)=O)CC3)cc2c(Cl)c1Cc1ccc(-n2cccn2)cc1 [JNJ-54119936]

— ChEMBL document CHEMBL4800728, “Data for DCP probe JNJ-54119936” (2021)
